Several values for one entry are separate records, joined by “and”; a condition that tells them apart may be missing. Equal entries are not always repeated. Inconclusive results and toxic doses are left out.
Tested on: L1210 leukemia ip in BDF1 mice, survival T/C
Test: NCI In Vivo Anticancer Drug Screen. Data for tumor model L1210 Leukemia (intraperitoneal) in B6D2F1 (BDF1) mice
Conditions: endpoint: mean survival time, higher = longer survival
How it was run: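 Transplantable tumor model; survival measured in treated vs vehicle control mice. Value = treated/control.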

[1] = dose: 50.0 mg/kg/injection, schedule: Q01DX009 (ip), vehicle: acetone
[2] = dose: 100.0 mg/kg/injection, schedule: Q01DX009 (ip), vehicle: acetone
[3] = dose: 100.0 mg/kg/injection, schedule: Q04DX003 (ip), vehicle: acetone
[4] = dose: 200.0 mg/kg/injection, schedule: Q04DX003 (ip), vehicle: acetone
[5] = dose: 100.0 mg/kg/injection, schedule: Q04DX003 (ip), vehicle: Klucel (hydroxypropylcellulose) (HPC)
[6] = dose: 100.0 mg/kg/injection, schedule: Q01DX009 (ip), vehicle: Klucel (hydroxypropylcellulose) (HPC)
[7] = dose: 200.0 mg/kg/injection, schedule: Q01DX009 (ip), vehicle: Klucel (hydroxypropylcellulose) (HPC)
[8] = dose: 200.0 mg/kg/injection, schedule: Q04DX003 (ip), vehicle: Klucel (hydroxypropylcellulose) (HPC)
[9] = dose: 400.0 mg/kg/injection, schedule: Q01DX009 (ip), vehicle: Klucel (hydroxypropylcellulose) (HPC)
[10] = dose: 400.0 mg/kg/injection, schedule: Q04DX003 (ip), vehicle: Klucel (hydroxypropylcellulose) (HPC)
[11] = dose: 75.0 mg/kg/injection, schedule: Q01DX001 (ip), vehicle: other
[12] = dose: 100.0 mg/kg/injection, schedule: Q01DX001 (ip), vehicle: saline
[13] = dose: 200.0 mg/kg/injection, schedule: Q01DX001 (ip), vehicle: saline
[14] = dose: 200.0 mg/kg/injection, schedule: Q04DX003 (ip), vehicle: saline with Tween-80
[15] = dose: 400.0 mg/kg/injection, schedule: Q04DX003 (ip), vehicle: saline with Tween-80
[16] = dose: 100.0 mg/kg/injection, schedule: Q04DX002 (ip), vehicle: Klucel (hydroxypropylcellulose) (HPC)
[17] = dose: 200.0 mg/kg/injection, schedule: Q04DX002 (ip), vehicle: Klucel (hydroxypropylcellulose) (HPC)
[18] = dose: 400.0 mg/kg/injection, schedule: Q04DX002 (ip), vehicle: Klucel (hydroxypropylcellulose) (HPC)

In the case of `CC1OCC(C)C(C)(C)O1` (configuration not stated), the T/C [1] is reported as 100 % of control, the T/C [2] is reported as 90 % of control and the T/C [3] is reported as 112 % of control. The T/C (dose: 200.0 mg/kg/injection, schedule: Q01DX009 (ip), vehicle: acetone) was 89 % of control, the T/C [4] was 108 % of control and the T/C (dose: 400.0 mg/kg/injection, schedule: Q04DX003 (ip), vehicle: acetone) was 103 % of control.
For `Ic1ccc(NC2=NCCN2)c2ccccc12`, the T/C (dose: 25.0 mg/kg/injection, schedule: Q04DX003 (ip), vehicle: Klucel (hydroxypropylcellulose) (HPC)) was 111 % of control, the T/C (dose: 50.0 mg/kg/injection, schedule: Q04DX003 (ip), vehicle: Klucel (hydroxypropylcellulose) (HPC)) was 100 % of control and the T/C [5] was 93 % of control and 91 % of control.
With `COc1ccc(NC(=S)Nc2ccc(OC)cc2)cc1` the T/C [6] was 101 % of control, the T/C [5] was 103 % of control and the T/C [7] was 105 % of control. For the same compound, the T/C [8] was 103 % of control, the T/C [9] was 92 % of control and the T/C [10] was 94 % of control.
For `Cn1c(=O)c2ccccc2c2cc(Br)ccc21`, the T/C (dose: 100.0 mg/kg/injection, schedule: Q04DX003 (ip), vehicle: other) was 90 % of control, the T/C (dose: 200.0 mg/kg/injection, schedule: Q04DX003 (ip), vehicle: other) was 92 % of control and the T/C (dose: 400.0 mg/kg/injection, schedule: Q04DX003 (ip), vehicle: other) was 95 % of control.
`O=C1C(O)=C(c2ccc(Br)cc2)C(=O)C(O)=C1c1ccc(Br)cc1` was tested, and the T/C [11] was 103 % of control.
For `Cn1cnc([N+](=O)[O-])c1Cl`, the T/C (dose: 50.0 mg/kg/injection, schedule: Q01DX009 (ip), vehicle: saline) was 102 % of control, the T/C (dose: 100.0 mg/kg/injection, schedule: Q01DX009 (ip), vehicle: saline) was 103 % of control and the T/C (dose: 100.0 mg/kg/injection, schedule: Q04DX003 (ip), vehicle: saline) was 94 % of control. For the same compound, the T/C (dose: 200.0 mg/kg/injection, schedule: Q01DX009 (ip), vehicle: saline) was 92 % of control and the T/C (dose: 200.0 mg/kg/injection, schedule: Q04DX003 (ip), vehicle: saline) was 102 % of control.
With `NC(CCCC(N)C(=O)CCl)C(=O)O` (configuration not stated) the T/C (dose: 25.0 mg/kg/injection, schedule: Q04DX002 (ip), vehicle: saline) was 114 % of control, the T/C (dose: 50.0 mg/kg/injection, schedule: Q04DX002 (ip), vehicle: saline) was 104 % of control and the T/C (dose: 100.0 mg/kg/injection, schedule: Q04DX002 (ip), vehicle: saline) was 107 % of control.
`CC#CC(O)(C(=O)OCC)C1CCCCC1` (configuration not stated) was tested, and the T/C [12] was 96 % of control, the T/C [13] was 113 % of control and the T/C (dose: 400.0 mg/kg/injection, schedule: Q01DX001 (ip), vehicle: saline) was 100 % of control.
For `CC(=O)C12OC1(C)CC1C3CC=C4CC(O)CCC4(C)C3CCC12C` (configuration not stated), the T/C (dose: 100.0 mg/kg/injection, schedule: Q01DX009 (sc), vehicle: steriod suspending solution) was 100 % of control, the T/C (dose: 100.0 mg/kg/injection, schedule: Q04DX003 (sc), vehicle: steriod suspending solution) was 108 % of control and the T/C (dose: 200.0 mg/kg/injection, schedule: Q01DX009 (sc), vehicle: steriod suspending solution) was 109 % of control. For the same compound, the T/C (dose: 200.0 mg/kg/injection, schedule: Q04DX003 (sc), vehicle: steriod suspending solution) was 122 % of control, the T/C (dose: 400.0 mg/kg/injection, schedule: Q01DX009 (sc), vehicle: steriod suspending solution) was 98 % of control and the T/C (dose: 400.0 mg/kg/injection, schedule: Q04DX003 (sc), vehicle: steriod suspending solution) was 103 % of control.
In the case of `CN1N=Nc2cccc3cccc1c23`, the T/C [1] is reported as 112 % of control, the T/C [2] is reported as 107 % of control and the T/C [3] is reported as 94 % of control. For the same compound, the T/C [4] was 87 % of control.
With `COc1ccc(/C(C)=N/N=C(\C)c2ccc(OC)cc2)cc1` the T/C [14] was 94 % of control and the T/C [15] was 91 % of control.
With `CC1(C)CCC(NC(=O)N(CCF)N=O)CC1` the T/C (dose: 9.0 mg/kg/injection, schedule: Q01DX001 (ip), vehicle: other) was 115 % of control, the T/C (dose: 13.0 mg/kg/injection, schedule: Q01DX001 (ip), vehicle: other) was 122 % of control and the T/C (dose: 37.0 mg/kg/injection, schedule: Q01DX001 (ip), vehicle: other) was 188 % of control. The T/C (dose: 50.0 mg/kg/injection, schedule: Q01DX001 (ip), vehicle: other) was 352 % of control and the T/C [11] was 352 % of control.
For `C/C=C/C[n+]1cccc2ccccc21`, the T/C (dose: 6.25 mg/kg/injection, schedule: Q01DX009 (ip), vehicle: saline) was 92 % of control, the T/C (dose: 6.25 mg/kg/injection, schedule: Q04DX003 (ip), vehicle: saline) was 98 % of control and the T/C (dose: 12.5 mg/kg/injection, schedule: Q01DX009 (ip), vehicle: saline) was 95 % of control. The T/C (dose: 12.5 mg/kg/injection, schedule: Q04DX003 (ip), vehicle: saline) was 101 % of control, the T/C (dose: 25.0 mg/kg/injection, schedule: Q01DX009 (ip), vehicle: saline) was 100 % of control and the T/C (dose: 25.0 mg/kg/injection, schedule: Q04DX003 (ip), vehicle: saline) was 101 % of control.
`O=C1COc2ccc(F)cc2N1` was tested, and the T/C [16] was 98 % of control, the T/C [17] was 102 % of control and the T/C [18] was 109 % of control.
`CCOC(OCC)c1cc(=O)[nH]c(NC(C)=O)n1` was tested, and the T/C [6] was 101 % of control, the T/C [7] was 101 % of control and the T/C [9] was 106 % of control.
In the case of `COCCCNCC(=O)N1CCN(C(=O)CNCCCOC)CC1`, the T/C (dose: 50.0 mg/kg/injection, schedule: Q01DX001 (ip), vehicle: carboxymethylcellulose (CMC)) is reported as 92 % of control, the T/C (dose: 100.0 mg/kg/injection, schedule: Q01DX001 (ip), vehicle: carboxymethylcellulose (CMC)) is reported as 92 % of control and the T/C (dose: 200.0 mg/kg/injection, schedule: Q01DX001 (ip), vehicle: carboxymethylcellulose (CMC)) is reported as 92 % of control. The T/C (dose: 400.0 mg/kg/injection, schedule: Q01DX001 (ip), vehicle: carboxymethylcellulose (CMC)) was 95 % of control.
With `COC1=C(N)C(=O)C(OC)=C(N)C1=O` the T/C [12] was 94 % of control and the T/C [13] was 97 % of control.
`C#CC1(O)CCCC(C)C1` (configuration not stated) was tested, and the T/C (dose: 100.0 mg/kg/injection, schedule: Q01DX009 (ip), vehicle: saline with Tween-80) was 102 % of control and the T/C (dose: 200.0 mg/kg/injection, schedule: Q01DX009 (ip), vehicle: saline with Tween-80) was 97 % of control.
`c1ccc(N2CN(c3ccccc3)CN(c3ccccc3)C2)cc1` was tested, and the T/C (dose: 100.0 mg/kg/injection, schedule: Q01DX001 (ip), vehicle: Klucel (hydroxypropylcellulose) (HPC)) was 97 % of control, the T/C [16] was 101 % of control and the T/C (dose: 200.0 mg/kg/injection, schedule: Q01DX001 (ip), vehicle: Klucel (hydroxypropylcellulose) (HPC)) was 92 % of control. The T/C [17] was 101 % of control, the T/C (dose: 400.0 mg/kg/injection, schedule: Q01DX001 (ip), vehicle: Klucel (hydroxypropylcellulose) (HPC)) was 92 % of control and the T/C [18] was 97 % of control.
`CCOc1ccc(NC(=O)Oc2cc(C)c(Cl)cc2C(C)C)cc1` was tested, and the T/C [16] was 90 % of control, the T/C [17] was 110 % of control and the T/C [18] was 100 % of control.
In the case of `COc1ccc2c(c1)CN(S(=O)(=O)c1ccc(C)cc1)CCC2O` (configuration not stated), the T/C [6] is reported as 96 % of control, the T/C [5] is reported as 96 % of control and the T/C [7] is reported as 116 % of control. For the same compound, the T/C [8] was 114 % of control, the T/C [9] was 98 % of control and the T/C [10] was 96 % of control.
In the case of `Clc1cccc2c(Cl)nccc12`, the T/C (dose: 100.0 mg/kg/injection, schedule: Q04DX003 (ip), vehicle: saline with Tween-80) is reported as 100 % of control, the T/C [14] is reported as 94 % of control and the T/C [15] is reported as 96 % of control.
In the case of `O=C(c1ccccc1)C(O)(CC(c1ccccc1)[P+](c1ccccc1)(c1ccccc1)c1ccccc1)c1ccccc1` (configuration not stated), the T/C (dose: 1.75 mg/kg/injection, schedule: Q01DX009 (ip), vehicle: saline) is reported as 93 % of control, the T/C (dose: 3.5 mg/kg/injection, schedule: Q01DX009 (ip), vehicle: saline) is reported as 93 % of control and the T/C (dose: 6.25 mg/kg/injection, schedule: Q01DX009 (ip), vehicle: Klucel (hydroxypropylcellulose) (HPC)) is reported as 102 % of control. For the same compound, the T/C (dose: 12.5 mg/kg/injection, schedule: Q01DX009 (ip), vehicle: Klucel (hydroxypropylcellulose) (HPC)) was 107 % of control and the T/C (dose: 400.0 mg/kg/injection, schedule: Q01DX001 (ip), vehicle: saline with Tween-80) was 87 % of control.
With `CN(C)c1ccc(/C=C/c2nc3ccc([N+](=O)[O-])cc3[nH]2)cc1` the T/C (dose: 50.0 mg/kg/injection, schedule: Q01DX009 (ip), vehicle: Klucel (hydroxypropylcellulose) (HPC)) was 97 % of control, the T/C [6] was 97 % of control and the T/C [5] was 97 % of control. For the same compound, the T/C [7] was 92 % of control, the T/C [8] was 102 % of control and the T/C [9] was 94 % of control. The T/C [10] was 103 % of control.

Reference: PubChem BioAssay AID248 (DTP/NCI, 2004)
